Laboratory results taken from patent publication US20200246284A1 (Academia Sinica, priority 2015, published 2020).
Values joined by “and” are separate entries in the source; they are usually repeats but may differ in a detail not shown here. Equal entries are not always repeated. Where two headings read alike, the source gives them in different places.

How the values were obtained:
[1] = tested on: DLBCL (GBC) cell lines; test: Combination of BO-1055 with PUH71, TT46, bortezomib, doxorubicin (Table 25); assay type: cell-based; details: Homo sapiens, read-out: IC50 single agent
[2] = tested on: Z-138; test: Combination with BO-1055, MCL (Tables 28, 29); assay type: cell-based, human; details: Z-138; combo-1 BO-1055 variable, combo-2 partner variable
[3] = tested on: Granta; test: Combination with BO-1055, MCL (Tables 28, 29); assay type: cell-based, human; details: Granta; combo-1 BO-1055 variable, combo-2 partner variable
[4] = tested on: REC-1; test: Combination with BO-1055, MCL (Tables 28, 29); assay type: cell-based, human; details: REC-1; combo-1 BO-1055 variable, combo-2 partner variable
[5] = tested on: Mino; test: Combination with BO-1055, MCL (Tables 28, 29); assay type: cell-based, human; details: Mino; combo-1 BO-1055 variable, combo-2 partner variable
[6] = tested on: NECB1; test: Combination with BO-1055, MCL (Tables 28, 29); assay type: cell-based, human; details: NECB1; combo-1 BO-1055 variable, combo-2 partner variable
[7] = tested on: LY1; test: Cytotoxicity DLBCL; details: read-out: cytotoxicity IC50; LY1, DLBCL GCB
Experimental: (§1) After 72 hours, the cultures were pulsed with Alamar Blue overnight, and the fluorescent intensity of resulted cultures was measured by a Synergy H1 plate-reader (BioTek Inc).

[8] = tested on: Ly3 (OCI-LY3); test: Cytotoxicity DLBCL; details: read-out: cytotoxicity IC50; LY3, DLBCL ABC
Experimental: as §1

[9] = tested on: Ly8; test: Cytotoxicity DLBCL; details: read-out: cytotoxicity IC50; LY8, DLBCL GCB
Experimental: as §1

[10] = tested on: Ly18; test: Cytotoxicity DLBCL; details: read-out: cytotoxicity IC50; LY18, DLBCL GCB
Experimental: as §1

[11] = tested on: SUDHL-4; test: Cytotoxicity DLBCL; details: read-out: cytotoxicity IC50; SUDHL-4, DLBCL GCB
Experimental: as §1

[12] = tested on: SUDHL-6; test: Cytotoxicity DLBCL; details: read-out: cytotoxicity IC50; SUDHL-6, DLBCL GCB
Experimental: as §1

[13] = tested on: Toledo; test: Cytotoxicity DLBCL; details: read-out: cytotoxicity IC50, DLBCL GCB
Experimental: as §1

[14] = tested on: Karpas-422; test: Cytotoxicity DLBCL; details: read-out: cytotoxicity IC50; Karpas-422, DLBCL GCB
Experimental: as §1

[15] = tested on: HBL1; test: Cytotoxicity DLBCL; details: read-out: cytotoxicity IC50; HBL1, DLBCL ABC
Experimental: as §1

[16] = tested on: U2932; test: Cytotoxicity DLBCL; details: read-out: cytotoxicity IC50; U2932, DLBCL ABC
Experimental: as §1

[17] = tested on: SUDHL-5; test: Cytotoxicity DLBCL; details: read-out: cytotoxicity IC50; SUDHL-5, DLBCL GCB
[18] = tested on: JEKO-1; test: Cytotoxicity mantle cell lymphoma
Experimental: as §1

[19] = tested on: Z-138; test: Cytotoxicity mantle cell lymphoma; details: read-out: cytotoxicity IC50; Z-138, mantle cell lymphoma
Experimental: as §1

[20] = tested on: Mino; test: Cytotoxicity mantle cell lymphoma; details: read-out: cytotoxicity IC50; Mino, mantle cell lymphoma
Experimental: as §1

[21] = tested on: Granta-519; test: Cytotoxicity mantle cell lymphoma; details: read-out: cytotoxicity IC50; Granta-519, mantle cell lymphoma
Experimental: as §1

[22] = tested on: NECB-1; test: Cytotoxicity mantle cell lymphoma; details: read-out: cytotoxicity IC50; NECB-1, mantle cell lymphoma
Experimental: as §1

[23] = tested on: spontaneous murine B-cell lymphoma; test: Cytotoxicity, with or without MS5 stromal cells; details: read-out: cytotoxicity IC50; murine BCL, spontaneous NSG CD19+, no stromal support

SMILES: CC(C)NCCCn1c(Sc2cc3c(cc2I)OCO3)nc2c(N)ncnc21 [PUH71]
- IC50 ([1]; Farage): 785 nM
- IC50 ([1]; KARPAS-422, KARPAS-422): 1520 nM
- IC50 ([1]; OCI-LY19, OCI-LY19): 221 nM
- IC50 ([1]; OCI-Ly8, OCI-LY8): 814 nM
- IC50 ([1]; OCI-Ly18, OCI-LY18): 274 nM
- IC50 ([1]; OCY-LY1): 208 nM
- IC50 ([1]; OCY-LY7): 391 nM
- IC50 ([1]; PFEIFER): 335 nM
- IC50 ([1]; SU-DHL-4, SUDHL4): 379 nM
- IC50 ([1]; SU-DHL-5, SUDHL5): 336 nM
- IC50 ([1]; SU-DHL-6, SUDHL6): 672 nM
- IC50 ([1]; Toledo): 10900 nM
- interaction with BO-1055 [2]: synergistic with BO-1055 in both combinations
- interaction with BO-1055 [3]: dually antagonistic
- interaction with BO-1055 [4]: antagonistic against REC-1 in both combinations
- interaction with BO-1055 [5]: dually synergistic
- interaction with BO-1055 [6]: synergistic with BO-1055 against NECB1 in combo-1 and antagonistic in combo-2
- IC50 [7]: 260 nM and 308 nM
- IC50 [8]: 2780 nM
- IC50 [9]: 810 nM
- IC50 [10]: 270 nM
- IC50 [11]: 200 nM
- IC50 [12]: 50 nM
- IC50 [13]: 2660 nM
- IC50 [14]: 450 nM
- IC50 [15]: 1670 nM
- IC50 [16]: 490 nM
- IC50 [17]: 410 nM
- IC50 ([18]; JEKO-1, 72 hr (Table 27)): 310 nM
- IC50 ([18]; read-out: cytotoxicity IC50, JEKO-1, mantle cell lymphoma): 260 nM
- IC50 [19]: 60 nM
- IC50 [20]: 260 nM
- IC50 [21]: 1220 nM
- IC50 [22]: 1660 nM
- IC50 [23]: 240 nM
